Experimental data published in US20230053540A1, “TREATMENT OF LIVER INJURY” (Massachusetts Institute of Technology, priority 2019, published 2023).

Test system: hepatocytes
Experiment: Seq-Well scRNA-Seq of hepatocytes after APAP overdose (signature scores, DEG vs untreated)
Assay type: in vivo, mouse
Details: APAP vs UT, composite DEG

CC(=O)Nc1ccc(O)cc1 [APAP, acetaminophen]
Fam134b logFC: 0.8936 | Fam214a logFC: −0.2658 | Fcgrt logFC: −0.2693 | Fdps logFC: −0.2663 | Fitm1 logFC: −0.3242 | Fkbp4 logFC: −0.3534 | Fmo5 logFC: 0.2862 | Fn1 logFC: 0.6996 | Fpgs logFC: −0.3494 | Ftl1 logFC: 1 | Furin logFC: 0.4056 | Fus logFC: 0.3393 | Fxyd5 logFC: 0.2743 | G0s2 logFC: 0.3465 | G6pc logFC: −0.9601 | Gabarap logFC: −0.4425 | Gabarapl1 logFC: 0.2607 | Gadd45g logFC: −0.614 | Gadd45gip1 logFC: −0.3041 | Gc logFC: 0.2598 | Gcdh logFC: −0.3003 | Gch1 logFC: −0.2825 | Gcnt2 logFC: 0.5375 | Gfra1 logFC: 0.3864 | Ggnbp2 logFC: 0.2726 | Ghr logFC: −0.3648 | Gjb1 logFC: −0.3166 | Glo1 logFC: −0.4066 | Gltscr2 logFC: 0.2553 | Glud1 logFC: 0.451 | Glyctk logFC: −0.2977 | Gm2a logFC: 0.3831 | Gm2788 logFC: −0.2831 | Gm4951 logFC: −0.3221 | Gm6484 logFC: 0.3043 | Gm10800 logFC: 0.5626 | Gm10801 logFC: 0.2659 | Gm23935 logFC: 1 | Gm24245 logFC: 0.5465 | Gm24270 logFC: 0.268 | Gne logFC: −0.4251 | Gnmt logFC: −0.4604 | Golga4 logFC: 0.3521 | Gpam logFC: 0.2504 | Gpld1 logFC: 0.3281 | Grhpr logFC: −0.3531 | Grlf1 logFC: 0.295 | Grn logFC: 0.5408 | Gsk3b logFC: 0.4065 | Gsta1 logFC: 0.4076 | Gsta3 logFC: −0.8063 | Gstk1 logFC: −0.2828 | Gstm4 logFC: −0.3809 | Gstp1 logFC: −0.8558 | Gstt3 logFC: 0.3507 | Gtpbp4 logFC: 0.4822 | Gyk logFC: 0.4024 | Gys2 logFC: 0.2744 | H6pd logFC: 0.3437 | Hadh logFC: 0.2888 | Hagh logFC: −0.674 | Hamp logFC: −1.021 | Hba-a1 logFC: 0.735 | Hba-a2 logFC: 0.5535 | Hbb-bt logFC: 1.43 | Hdac11 logFC: −0.3368 | Hdlbp logFC: 0.5651 | Herpud1 logFC: 0.5136 | Hgd logFC: −0.7586 | Hgfac logFC: 0.2522 | Hibch logFC: −0.3271 | Hint1 logFC: −0.6739 | Hipk3 logFC: 0.3394 | Hist1h1c logFC: −0.3009 | Hmgcl logFC: 0.4738 | Hmgcr logFC: 0.4167 | Hmgcs1 logFC: −0.3491 | Hnf4a logFC: 0.8791 | Hnrnpdl logFC: 0.398 | Hp logFC: 0.4313 | Hsd3b3 logFC: −0.7795 | Hsd3b5 logFC: −1.07 | Hsd3b7 logFC: −1.006 | Hsd17b4 logFC: 0.2532 | Hsd17b10 logFC: −0.3772 | Hsd17b13 logFC: 0.6808 | Hsp90ab1 logFC: 0.3227 | Hsp90b1 logFC: 0.5342 | Hspa5 logFC: 0.6105 | Hspa8 logFC: 0.4204 | Huwe1 logFC: 0.3879 | Hyou1 logFC: 0.8465 | Id3 logFC: −0.3511 | Ide logFC: 0.2517 | Ifrd1 logFC: 0.4904 | Igf1 logFC: 0.2958 | Iigp1 logFC: 0.7688 | Il1b logFC: 0.7429 | Il1r1 logFC: 1.245 | Il4ra logFC: 0.2574 | Il6ra logFC: 0.3044 | Ildr2 logFC: 0.2676 | Insig2 logFC: 0.67 | Ipo5 logFC: 0.2687 | Iqgap1 logFC: 0.4554 | Iqgap2 logFC: 0.2547 | Ireb2 logFC: 0.2657 | Itih3 logFC: 0.5462 | Itih4 logFC: 0.5251 | Jhdm1d logFC: 0.3041 | Kdelr2 logFC: 0.3977 | Khk logFC: −0.4915 | Kif1b logFC: 0.3718 | Kif5b logFC: 0.5012 | Kif21a logFC: 0.4042 | Klf3 logFC: 0.2674 | Klf6 logFC: 0.7324 | Klf9 logFC: 0.2934 | Kng1 logFC: 0.2658 | Krt8 logFC: 1.196 | Krt18 logFC: 1.258 | Lamp1 logFC: 0.2683 | Lap3 logFC: −0.3644 | Larp4b logFC: 0.3421 | Lasp1 logFC: 0.253 | Lcat logFC: 0.4361 | Lcp1 logFC: 0.484 | Lgals9 logFC: −0.27 | Lifr logFC: −0.6262 | Lipa logFC: 0.4183 | Litaf logFC: 0.3944 | Lpgat1 logFC: 0.5952 | Lpin2 logFC: 0.6867 | Lrg1 logFC: 0.4908 | Lrrc58 logFC: 1.001 | Lrrfip2 logFC: 0.3731 | Lsmd1 logFC: −0.3131 | Lyz2 logFC: 0.7322 | Macf1 logFC: 0.4042 | Magt1 logFC: 0.2633 | Man2a1 logFC: 0.4971 | Maob logFC: 0.3204 | Map3k5 logFC: 0.3347 | Mapk6 logFC: 0.2568 | Mat2a logFC: 0.4826 | Mbl2 logFC: −0.3465 | Mbnl1 logFC: 0.4513 | Mcee logFC: −0.3199 | Mcl1 logFC: 0.5709 | Mdh1 logFC: −0.3077 | Mdm2 logFC: 0.3283 | Med13 logFC: 0.2949 | Met logFC: 0.2883 | Metap2 logFC: 0.3686 | Mettl7a1 logFC: −0.3221 | Mettl7b logFC: −0.4527 | Mettl20 logFC: −0.3314 | Mgll logFC: 0.3339 | Mgst1 logFC: −1.06 | Mia3 logFC: 0.3646 | Mien1 logFC: −0.3704 | Mki67ip logFC: 0.3184 | Mlycd logFC: 0.313 | Mmp8 logFC: 0.359 | Mocs2 logFC: −0.3467 | Mpeg1 logFC: 0.4935 | Mrap logFC: 0.8841 | Mrc1 logFC: 0.3404 | Mrp63 logFC: −0.4422 | Mrpl12 logFC: −0.3082 | Mrpl33 logFC: −0.2654 | Mrps18c logFC: −0.3663 | Mrps24 logFC: −0.3904 | Mtdh logFC: 0.3047 | Mthfd2 logFC: 0.2624 | Mtss1 logFC: 0.2876 | Mttp logFC: 0.3115 | Mtus1 logFC: 0.3621 | Mup1 logFC: 1 | Mup4 logFC: −1.087 | Mup8 logFC: −0.7958 | Mup13 logFC: −0.7757 | Mup14 logFC: −0.7608 | Mup20 logFC: −0.4762 | Mxd1 logFC: 0.2978 | Mybbp1a logFC: 0.4312 | Myh9 logFC: 1.16 | Myl12a logFC: 0.3908 | Nadk2 logFC: 0.2579 | Naprt1 logFC: −0.3381 | Narf logFC: 0.2629 | Nars logFC: 0.4378 | Ncl logFC: 0.4845 | Ndufa1 logFC: −0.3645 | Ndufa2 logFC: −0.3965 | Ndufa3 logFC: −0.4116 | Ndufa4 logFC: −0.6831 | Ndufb3 logFC: −0.3272 | Ndufb8 logFC: −0.3481 | Ndufb10 logFC: −0.3004 | Ndufc1 logFC: −0.3444 | Ndufc2 logFC: −0.4253
